# Test results published in PubChem BioAssay AID2742 (NMMLSC, 2010).
# Tested on: S. cerevisiae MEP2-GFP strain, flow cytometry fluorescence, 3 h
# Assay: TOR pathway reporter MEP2-GFP, concentration series – S. cerevisiae, flow cytometry GFP, MLPCN hits, dose response (AID 2742);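 note: curve fit on GFP signal minus compound signal in parental s288c strain lacking GFP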
row,SMILES,EC50 [nM]
1,O=C1NC(=O)N(Cc2ccc(F)cc2)C(=O)/C1=C/c1cccs1,3010
2,Nc1ccc(Br)c2c1C(=O)c1ccccc1C2=O,1040
3,CNC(CC(=O)c1ccc([N+](=O)[O-])cc1)C(Cl)(Cl)Cl (configuration not stated),2280
4,CCCCCCCCn1sccc1=O,1230
5,O=C1NC(=O)C(=Cc2ccc(-c3ccc(Cl)cc3)o2)C(=O)N1,1380
6,CCOC(=O)COc1ccc2ccccc2c1/C=C/[N+](=O)[O-],12700
7,Cc1ccc(/C=C/C(=O)c2ccccc(=O)c2O)c(C)c1,13700
